Test results: patent US9850283B2, “Macrocyclic inhibitors of the PD-1/PD-L1 and CD80(B7-1)/PD-L1 protein/protein interactions” (BRISTOL-MYERS SQUIBB COMPANY, priority 2013, dated 2017)
Like-named read-outs stand apart in the source and are kept apart here. Each block holds one compound with its values, some of them ahead of it. Positions of bridges follow the written chain, without caps; N, C: chain ends. Non-standard residues stand in square brackets, D forms with d. Residues, ends and D or L forms follow the SMILES beside them. ξ: configuration not given here. PEG12 = NCCOCCOCCOCCOCCOCCOCCOCCOCCOCCOCCOCCOCCC(=O)O; Phe(4-Cl) = N[C@@H](Cc1ccc(Cl)cc1)C(=O)O; Bta = N[C@@H](Cc1csc2ccccc12)C(=O)O; Hyp = O=C(O)[C@@H]1C[C@@H](O)CN1; NMeF = CN[C@@H](Cc1ccccc1)C(=O)O; dHyp = O=C(O)[C@H]1C[C@H](O)CN1; NMeNle = CCCC[C@H](NC)C(=O)O; NMeM = CN[C@@H](CCSC)C(=O)O; NMeA = CN[C@@H](C)C(=O)O; Orn = NCCC[C@H](N)C(=O)O; Dap = NC[C@H](N)C(=O)O; ξC = NC(CS)C(=O)O; Sar = CNCC(=O)O

What was measured:
Human PD-L1/PD-1 = target: T1, Human PD-L1/PD-1 (Homo sapiens, UniProt Q9NZQ7); assay: HTRF PD-1-Ig/PD-L1-His binding assay (human PD-L1)
T1 construct: made in house; host or cells: HEK293T
From the text: The ability of the macrocyclic peptides of the present disclosure to bind to PD-L1 was investigated using a PD-1/PD-L1 Homogenous Time-Resolved Fluorescence (HTRF) binding assay.
Homogenous Time-Resolved Fluorescence (HTRF) Assays of Binding of Soluble PD-1 to Soluble PD-L1. Soluble PD-1 and soluble PD-L1 refers to proteins with carboxyl-end truncations that remove the transmembrane-spanning regions and are fused to heterologous sequences, specifically the Fc portion of the human immunoglobuling G sequence (Ig) or the hexahistidine epitope tag (His). All binding studies were performed in an HTRF assay buffer consisting of dPBS supplemented with 0.1% (w/v) bovine serum albumin and 0.05% (v/v) Tween-20. […] PD-L1 fusion proteins from either human, cynomologous macaques, or mouse were used. HTRF detection was achieved using europium crypate-labeled anti-Ig monoclonal antibody (1 nM final) and allophycocyanin (APC) labeled anti-His monoclonal antibody (20 nM final). Antibodies were diluted in HTRF detection buffer and 5 μl was dispensed on top of binding reaction.

[1] = target: T2, LK35.2-hPD-L1 cells / PE-labeled PD-1-Ig (Homo sapiens, UniProt Q9NZQ7); assay: LK35.2-hPD-L1 cell binding high-content screening assay; type: cell-based; conditions: cell binding assay, cell line not given; cluster symbol; read-out: CBA IC50 cluster
T2 construct: expressed in transfected cells; host or cells: LK35.2 mouse B cell line
Description: LK35.2-hPD-L1 Cell Binding High-Content Screening Assay. Phycoerythrin (PE) was covalently linked to the Ig epitope tag of human PD-1-Ig and fluorescently-labeled PD-1-Ig was used for binding studies with a mouse B cell line (LK35.2) stably over-expressing human PD-L1 (LK35.2-hPD-L1). Briefly, 3×10^3 LK35.2-hPD-L1 cells were seeded into 384 well plates in 20 ul of RPMI supplemented with 10% fetal calf serum and cultured overnight. 125 nl of compound was added to cells, followed by 5 ul of PE-labeled PD-1-Ig (1 nM final), diluted in RPMI supplemented with 10% fetal calf serum, followed by incubation at 37° C. for 1 h. […] Cells were washed 3× in 100 ul of dPBS followed by final addition of 15 ul of dPBS. Data was collected and processed using a Cell Insight NXT High Content Imager and associated software.

[2] = Table 9, Compound No. 71 variant macrocyclic peptides, read-out: HTRF Human PD-L1/PD-1 Binding Assay IC50
[3] = Table 7, Compound No. 99 variant macrocyclic peptides, read-out: HTRF Human PD-L1/PD-1 Binding Assay IC50
[4] = Table 10, Compound No. 116 variant macrocyclic peptides, read-out: HTRF Human PD-L1/PD-1 Binding Assay IC50

T1 sequence (Q9NZQ7 with tags, fused parts or gaps): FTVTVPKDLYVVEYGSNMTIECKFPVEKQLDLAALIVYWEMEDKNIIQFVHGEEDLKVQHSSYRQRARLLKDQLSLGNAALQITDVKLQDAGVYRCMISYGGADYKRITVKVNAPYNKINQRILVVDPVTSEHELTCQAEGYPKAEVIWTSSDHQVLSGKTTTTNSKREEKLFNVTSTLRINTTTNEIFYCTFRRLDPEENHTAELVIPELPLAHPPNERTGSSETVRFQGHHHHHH
T2 sequence (Q9NZQ7 19-290): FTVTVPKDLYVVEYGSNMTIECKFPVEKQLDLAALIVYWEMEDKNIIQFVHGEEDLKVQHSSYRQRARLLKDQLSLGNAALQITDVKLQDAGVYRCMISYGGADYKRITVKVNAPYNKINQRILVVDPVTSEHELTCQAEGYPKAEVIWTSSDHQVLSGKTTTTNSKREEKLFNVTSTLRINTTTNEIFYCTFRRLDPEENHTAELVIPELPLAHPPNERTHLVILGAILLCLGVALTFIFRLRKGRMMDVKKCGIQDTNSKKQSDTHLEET

Structure (SMILES): CCCC[C@H]1C(=O)N(C)CC(=O)N[C@@H](CC(=O)O)C(=O)N[C@@H](C(C)C)C(=O)N[C@@H](Cc2ccccc2)C(=O)N[C@@H](Cc2ccc(O)cc2)C(=O)N(C)CC(=O)N[C@@H](Cc2c[nH]c3ccccc23)C(=O)N[C@@H](Cc2ccc(O)cc2)C(=O)N[C@@H](CC(C)C)C(=O)N[C@H](C(=O)NCC(N)=O)CSCC(=O)N[C@@H](Cc2ccccc2)C(=O)N(C)[C@@H](Cc2ccccc2)C(=O)N1C [Compound No. 82] (HELM PEPTIDE1{[O=C(C[*:3])[*:2]].F.[meF].[CCCC[C@@H](C(=O)[*:2])N(C)[*:1]].[Sar].D.V.F.Y.[Sar].W.Y.L.C.G.[am]}$PEPTIDE1,PEPTIDE1,1:R3-14:R3$$$V2.0)
IC50 (Human PD-L1/PD-1; [2]): 47 nM

Structure (SMILES): CCCC[C@H]1C(=O)N(C)CC(=O)N[C@@H](CC(=O)O)C(=O)N[C@@H](C(C)C)C(=O)N(C)[C@@H](Cc2ccccc2)C(=O)N[C@@H](C)C(=O)N(C)CC(=O)N[C@@H](Cc2c[nH]c3ccccc23)C(=O)N[C@@H](Cc2ccc(O)cc2)C(=O)N[C@@H](CC(C)C)C(=O)N[C@H](C(=O)NCC(N)=O)CSCC(=O)N[C@@H](Cc2ccccc2)C(=O)N(C)[C@@H](Cc2ccccc2)C(=O)N1C [Compound No. 83] (HELM PEPTIDE1{[O=C(C[*:3])[*:2]].F.[meF].[CCCC[C@@H](C(=O)[*:2])N(C)[*:1]].[Sar].D.V.[meF].A.[Sar].W.Y.L.C.G.[am]}$PEPTIDE1,PEPTIDE1,1:R3-14:R3$$$V2.0)
IC50 (Human PD-L1/PD-1; [2]): 35 nM

Structure (SMILES): CC[C@H](C)[C@@H]1NC(=O)[C@H](C(C)C)NC(=O)[C@H]([C@@H](C)CC)NC(=O)[C@@H](Cc2ccccc2)NC(=O)[C@H](Cc2ccccc2)NC(=O)CSC[C@@H](C(=O)NCC(N)=O)NC(=O)[C@H](CCCNC(=N)N)NC(=O)[C@H](Cc2ccccc2)NC(=O)[C@H](C(C)C)NC(=O)[C@H](CCCNC(=N)N)NC(=O)[C@H](CC(=O)O)NC(=O)[C@H](CCCNC(=N)N)NC1=O [Compound No. 102] (HELM PEPTIDE1{[O=C(C[*:3])[*:2]].F.[dF].I.V.I.R.D.R.V.F.R.C.G.[am]}$PEPTIDE1,PEPTIDE1,1:R3-13:R3$$$V2.0)
IC50 (Human PD-L1/PD-1; [3]): > 20000 nM

Structure (SMILES): CC[C@H](C)[C@@H]1NC(=O)[C@H](CC(C)C)NC(=O)[C@H](Cc2ccccc2)NC(=O)CSC[C@@H](C(=O)NCC(N)=O)NC(=O)[C@H](CCCNC(=N)N)NC(=O)[C@H](Cc2ccccc2)NC(=O)[C@H](C(C)C)NC(=O)[C@H](CCCNC(=N)N)NC(=O)[C@H](CC(=O)O)NC(=O)[C@H](CC(C)C)NC(=O)[C@H]([C@@H](C)CC)NC(=O)[C@H](C(C)C)NC1=O [Compound No. 109] (HELM PEPTIDE1{[O=C(C[*:3])[*:2]].F.L.I.V.I.L.D.R.V.F.R.C.G.[am]}$PEPTIDE1,PEPTIDE1,1:R3-13:R3$$$V2.0)
IC50 (Human PD-L1/PD-1; [3]): > 20000 nM

Structure (SMILES): CCCC[C@H]1C(=O)N(C)[C@@H](CCCC)C(=O)N[C@@H](CCCNC(=N)N)C(=O)N[C@H](C(=O)NCC(=O)NCCOCCOCCOCCOCCOCCOCCOCCOCCOCCOCCOCCOCCC(N)=O)CSCC(=O)N[C@@H](Cc2ccccc2)C(=O)N(C)[C@@H](C)C(=O)N[C@@H](CC(N)=O)C(=O)N2CCC[C@H]2C(=O)N[C@@H](Cc2cnc[nH]2)C(=O)N[C@@H](CC(C)C)C(=O)N(C)CC(=O)N[C@@H](Cc2c[nH]c3ccccc23)C(=O)N[C@@H](CO)C(=O)N[C@@H](Cc2c[nH]c3ccccc23)C(=O)N1C [Compound No. 116] ({CH2CO}-F[NMeA]NPHL[Sar]WSW[NMeNle][NMeNle]RCG[PEG12]-NH2; thioether N-14)
IC50 (Human PD-L1/PD-1; [4]): 21 nM

Structure (SMILES): CCCC[C@H]1C(=O)N(C)[C@@H](CCCC)C(=O)N[C@@H](CC(C)C)C(=O)N[C@H](C(=O)NCC(=O)NCCOCCOCCOCCOCCOCCOCCOCCOCCOCCOCCOCCOCCC(N)=O)CSCC(=O)N[C@@H](Cc2ccccc2)C(=O)N(C)[C@@H](C)C(=O)N[C@@H](CC(N)=O)C(=O)N2CCC[C@H]2C(=O)N[C@@H](Cc2cnc[nH]2)C(=O)N[C@@H](Cc2cnc[nH]2)C(=O)N[C@@H](CO)C(=O)N[C@@H](Cc2c[nH]c3ccccc23)C(=O)N[C@@H](CCCNC(=N)N)C(=O)N[C@@H](Cc2c[nH]c3ccccc23)C(=O)N1C [Compound No. 117] ({CH2CO}-F[NMeA]NPHHSWRW[NMeNle][NMeNle]LCG[PEG12]-NH2; thioether N-14)
IC50 (Human PD-L1/PD-1; [4]): 21 nM

The next lines start with the values.

IC50 (Human PD-L1/PD-1; [4]): 3 nM
Structure (SMILES): CCCC[C@H]1C(=O)N(C)CC(=O)N[C@@H](CC(=O)O)C(=O)N[C@@H](C(C)C)C(=O)N(C)[C@@H](Cc2ccccc2)C(=O)N[C@@H](Cc2ccc(O)cc2)C(=O)N(C)CC(=O)N[C@@H](Cc2c[nH]c3ccccc23)C(=O)N[C@@H](Cc2ccc(O)cc2)C(=O)N[C@@H](CC(C)C)C(=O)N[C@H](C(=O)NCC(=O)NCCOCCOCCOCCOCCOCCOCCOCCOCCOCCOCCOCCOCCC(N)=O)CSCC(=O)N[C@@H](Cc2ccccc2)C(=O)N(C)[C@@H](Cc2ccccc2)C(=O)N1C [Compound No. 118] ({CH2CO}-F[NMeF][NMeNle][Sar]DV[NMeF]Y[Sar]WYLCG[PEG12]-NH2; thioether N-13)

IC50 (Human PD-L1/PD-1; read-out: HTRF IC50 value): 5.05 nM
Structure (SMILES): CCCC[C@H]1C(=O)N(C)[C@@H](CCCC)C(=O)N[C@@H](CCCNC(=N)N)C(=O)N[C@H](C(=O)NCC(N)=O)CSCC(=O)N[C@@H](Cc2ccc(Cl)cc2)C(=O)N(C)[C@@H](C)C(=O)N[C@@H](CC(N)=O)C(=O)N2CCC[C@H]2C(=O)N[C@@H](Cc2cnc[nH]2)C(=O)N[C@@H](CC(C)C)C(=O)N2C[C@H](O)C[C@H]2C(=O)N[C@@H](Cc2c[nH]c3ccccc23)C(=O)N[C@@H](CO)C(=O)N[C@@H](Cc2csc3ccccc23)C(=O)N1C [Example 1125] ({CH2CO}-[Phe(4-Cl)][NMeA]NPHL[Hyp]WS[Bta][NMeNle][NMeNle]RCG-NH2; thioether N-14)

IC50 (Human PD-L1/PD-1; read-out: HTRF IC50 value): 2.71 nM
Structure (SMILES): CCCC[C@H]1C(=O)N(C)[C@@H](CCCC)C(=O)N[C@@H](CCCN)C(=O)N[C@H](C(=O)NCC(N)=O)CSCC(=O)N[C@@H](Cc2ccc(O)cc2)C(=O)N2CCC[C@H]2C(=O)N[C@@H](CC(N)=O)C(=O)N2CCC[C@H]2C(=O)N[C@@H](Cc2cnc[nH]2)C(=O)N[C@@H](CC(C)C)C(=O)N2C[C@H](O)C[C@H]2C(=O)N[C@@H](Cc2c[nH]c3ccccc23)C(=O)N[C@@H](CO)C(=O)N[C@@H](Cc2c[nH]c3ccccc23)C(=O)N1C [Example 1173] ({CH2CO}-YPNPHL[Hyp]WSW[NMeNle][NMeNle][Orn]CG-NH2; thioether N-14)

IC50 (Human PD-L1/PD-1; cluster symbol, read-out: HTRF IC50 cluster): 6.76 to 30.3 nM
Structure (SMILES): CCCC[C@H]1C(=O)N(C)CC(=O)N[C@@H](CC(=O)O)C(=O)N[C@@H](C(C)C)C(=O)N(C)[C@@H](Cc2ccccc2)C(=O)N[C@@H](Cc2ccc(O)cc2)C(=O)N(C)CC(=O)N[C@@H](Cc2c[nH]c3ccccc23)C(=O)N[C@@H](Cc2ccc(O)cc2)C(=O)N[C@@H](CC(C)C)C(=O)N[C@H](C(=O)NCC(N)=O)CSCC(=O)N[C@@H](Cc2ccccc2)C(=O)N(C)[C@@H](Cc2cnc[nH]2)C(=O)N1C [Example 3056-B] (HELM PEPTIDE1{[O=C(C[*:3])[*:2]].F.[meH].[CCCC[C@@H](C(=O)[*:2])N(C)[*:1]].[Sar].D.V.[meF].Y.[Sar].W.Y.L.C.G.[am]}$PEPTIDE1,PEPTIDE1,1:R3-14:R3$$$V2.0)

IC50 [1]: 0.158 to 4.71 nM
Structure (SMILES): CCCC[C@H]1C(=O)N(C)CC(=O)N[C@@H](CC(=O)O)C(=O)N[C@@H](C(C)C)C(=O)N(C)[C@@H](Cc2ccccc2)C(=O)N[C@@H](Cc2ccc(O)cc2)C(=O)N2C[C@@H](O)C[C@@H]2C(=O)N[C@@H](Cc2c[nH]c3ccccc23)C(=O)N[C@@H](Cc2ccc(O)cc2)C(=O)N[C@@H](CC(C)C)C(=O)N[C@H](C(=O)NCC(N)=O)CSCC(=O)N[C@@H](Cc2ccccc2)C(=O)N(C)[C@@H](Cc2ccccc2)C(=O)N1C [Example 3583] ({CH2CO}-F[NMeF][NMeNle][Sar]DV[NMeF]Y[dHyp]WYLCG-NH2; thioether N-13)

IC50 [1]: 4.78 to 72.9 nM
Structure (SMILES): CCCC[C@H]1C(=O)N[C@@H](CCCNC(=N)N)C(=O)NC(C(=O)NCC(N)=O)CSCC(=O)N[C@@H](Cc2ccc(O)cc2)C(=O)N(C)[C@@H](C)C(=O)N[C@@H](CC(N)=O)C(=O)N2CCC[C@H]2C(=O)N[C@@H](CN)C(=O)N[C@@H](CC(C)C)C(=O)N2CCC[C@H]2C(=O)N[C@@H](Cc2c[nH]c3ccccc23)C(=O)N[C@@H](CO)C(=O)N[C@@H](Cc2c[nH]c3ccccc23)C(=O)N(C)[C@@H](CCSC)C(=O)N1C (stereo partly drawn) [Example 9097] ({CH2CO}-Y[NMeA]NP[Dap]LPWSW[NMeM][NMeNle]R[ξC]G-NH2; thioether N-14)
